pEC50, pIC50: −log10 of the molar value. In brackets after ≈: the same amount, converted by molar mass.
Legend:
[1] = system: Mycobacterium tuberculosis; test: Antitubercular activity against Mycobacterium tuberculosis; format: functional
Staphylococcus aureus [2] = test: Antibacterial activity against Staphylococcus aureus ATCC 6538 by broth microdilution method; format: functional
[3] = system: Staphylococcus epidermidis; test: Antibacterial activity against Staphylococcus epidermidis ATCC 12228 by broth microdilution method; format: functional
Staphylococcus aureus [4] = test: Antibacterial activity against Staphylococcus aureus ATCC 25923 by broth microdilution method; format: functional
Klebsiella pneumoniae = test: Antibacterial activity against Klebsiella pneumoniae; format: functional, organism-based
HepG2 = test: Growth inhibition of human HepG2 cells by MTT assay; format: functional
A-431 = test: Anticancer activity against human A431 cells; format: functional, cell-based
NCI-H460 = test: Growth inhibition of human NCI-H460 cells by MTT assay; format: functional
Jurkat = test: Anticancer activity against human Jurkat cells; format: functional, cell-based
HT-29 = test: Growth inhibition of human HT-29 cells by MTT assay; format: functional
Pseudomonas aeruginosa = test: Antibacterial activity against Pseudomonas aeruginosa; format: functional, organism-based
Bacillus subtilis = test: Antibacterial activity against Bacillus subtilis; format: functional, organism-based
Candida albicans = test: […] activity against Candida albicans; format: functional, organism-based
Escherichia coli = test: Antibacterial activity against Escherichia coli; format: functional, organism-based
Staphylococcus aureus [5] = test: Antibacterial activity against Staphylococcus aureus; format: functional, organism-based
MCF7 [6] = test: Cytotoxicity against human MCF7 cells after 72 hrs by MTT assay; format: functional, cell-based; details: MCF7, 72 h
MCF7 [7] = test: Potency index, ratio of doxorubicin IC50 to compound IC50 for human MCF7 cells; format: functional
MCF7 [8] = test: Growth inhibition of human MCF7 cells after 48 hrs by SRB assay; format: functional; details: MCF7, 48 h
Alpha glucosidase = Alpha glucosidase (Homo sapiens, UniProt O43451+P10253+P14410+Q2M2H8); test: Inhibition of alpha-glucosidase (unknown origin) using p-nitrophenyl alpha-d-glucopyranoside as substrate preincubated for 15 mins followed by substrate addition measured after 30 mins by spectrophotometric analysis; format: protein assay
[9] = system: Feline immunodeficiency virus; test: Antiviral activity against Feline immunodeficiency virus; format: functional, organism-based
Leishmania amazonensis = test: Antileishmanial activity against Leishmania amazonensis promastigotes; format: functional, organism-based
Rattus norvegicus [10] = test: Anti-inflammatory activity against carrageenan-induced Albino Wistar rat paw edema model assessed as inhibition of rat paw edema at 50 mg/kg, po pretreated for 1 hr followed by carrageenan addition measured after 1 to 4 hrs relative to control; format: functional
[11] = target: Large neutral amino acids transporter small subunit 1 (Homo sapiens, UniProt Q01650); test: Inhibition of recombinant human LAT1
Sequence of Large neutral amino acids transporter small subunit 1 (Q01650 whole entry): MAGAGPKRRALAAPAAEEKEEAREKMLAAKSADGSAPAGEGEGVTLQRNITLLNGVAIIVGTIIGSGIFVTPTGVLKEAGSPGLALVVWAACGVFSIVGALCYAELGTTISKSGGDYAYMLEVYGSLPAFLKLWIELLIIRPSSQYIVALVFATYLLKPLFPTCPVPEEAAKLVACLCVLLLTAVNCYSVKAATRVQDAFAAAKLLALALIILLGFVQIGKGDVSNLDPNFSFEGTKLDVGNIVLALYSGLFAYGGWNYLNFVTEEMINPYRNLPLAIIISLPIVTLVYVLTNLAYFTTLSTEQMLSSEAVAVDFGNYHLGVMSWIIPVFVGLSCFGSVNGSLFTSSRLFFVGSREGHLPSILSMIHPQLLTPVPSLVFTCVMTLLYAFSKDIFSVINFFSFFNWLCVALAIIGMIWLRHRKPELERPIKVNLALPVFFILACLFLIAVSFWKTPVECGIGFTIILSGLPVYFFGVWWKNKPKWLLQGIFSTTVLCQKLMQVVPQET

[12] = Antioxidant activity assessed as DPPH radical scavenging activity after 30 mins under dark condition; format: functional
Streptococcus pneumoniae = test: Antibacterial activity against Streptococcus pneumoniae; format: functional
[13] = target: Peroxisome proliferator-activated receptor gamma (Homo sapiens, UniProt P37231); test: Inhibition of PPARgamma (unknown origin)
Sequence of Peroxisome proliferator-activated receptor gamma (P37231 whole entry): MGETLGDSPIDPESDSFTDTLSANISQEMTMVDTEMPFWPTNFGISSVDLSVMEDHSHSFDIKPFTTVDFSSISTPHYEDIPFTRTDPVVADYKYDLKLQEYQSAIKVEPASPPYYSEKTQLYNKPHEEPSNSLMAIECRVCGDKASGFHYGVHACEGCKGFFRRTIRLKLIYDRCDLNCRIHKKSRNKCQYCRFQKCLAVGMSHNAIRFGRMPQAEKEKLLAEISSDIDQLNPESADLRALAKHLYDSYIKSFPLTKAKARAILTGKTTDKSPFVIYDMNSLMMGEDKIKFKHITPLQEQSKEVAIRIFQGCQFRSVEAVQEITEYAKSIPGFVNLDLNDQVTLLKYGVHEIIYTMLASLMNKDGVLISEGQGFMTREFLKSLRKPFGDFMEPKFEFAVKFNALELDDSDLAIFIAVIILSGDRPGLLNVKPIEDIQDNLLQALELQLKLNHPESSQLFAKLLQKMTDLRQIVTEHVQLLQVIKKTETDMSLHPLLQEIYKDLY

Psilocybe cubensis = test: Antifungal activity Psilocybe cubensis; format: functional, organism-based
Phytophthora infestans = test: Antifungal activity Phytophthora infestans; format: functional, organism-based
[14] = target: Quinolone resistance protein NorA (Staphylococcus aureus) (UniProt P0A0J7); test: Inhibition of NorA in Staphylococcus aureus measured after 1 hr by ethidium bromide staining based agar-cartwheel assay method
[15] = target: 72 kDa type IV collagenase (Homo sapiens, UniProt P08253); test: Inhibition of MMP2 catalytic domain (unknown origin) using Ac-PLG-[2-mercapto-4-methylpentanoyl]-LG-OC2H5 as substrate preincubated for 45 to 120 mins followed by substrate addition measured for 30 mins in 1 min time interval
Sequence of 72 kDa type IV collagenase (P08253 whole entry, the tested form may be a part): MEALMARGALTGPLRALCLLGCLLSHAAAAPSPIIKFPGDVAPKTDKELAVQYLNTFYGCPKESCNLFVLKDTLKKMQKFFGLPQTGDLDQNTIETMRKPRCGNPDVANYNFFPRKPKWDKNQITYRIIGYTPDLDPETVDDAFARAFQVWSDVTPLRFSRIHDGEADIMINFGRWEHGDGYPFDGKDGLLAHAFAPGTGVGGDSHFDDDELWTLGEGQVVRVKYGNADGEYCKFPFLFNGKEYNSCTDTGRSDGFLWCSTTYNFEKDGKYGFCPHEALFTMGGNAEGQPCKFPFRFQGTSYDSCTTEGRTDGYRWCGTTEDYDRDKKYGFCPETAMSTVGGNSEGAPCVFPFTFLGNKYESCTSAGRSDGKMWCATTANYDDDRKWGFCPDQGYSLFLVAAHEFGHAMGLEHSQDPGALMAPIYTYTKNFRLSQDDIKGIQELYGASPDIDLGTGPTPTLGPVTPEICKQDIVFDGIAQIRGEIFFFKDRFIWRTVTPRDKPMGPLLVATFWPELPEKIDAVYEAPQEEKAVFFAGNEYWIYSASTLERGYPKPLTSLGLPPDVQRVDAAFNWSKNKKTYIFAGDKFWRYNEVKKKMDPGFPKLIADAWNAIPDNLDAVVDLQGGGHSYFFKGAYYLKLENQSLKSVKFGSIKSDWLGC

[16] = target: Prostaglandin G/H synthase 2 (Homo sapiens, UniProt P35354); test: Inhibition of COX2 (unknown origin) by EIA
Sequence of Prostaglandin G/H synthase 2 (P35354 whole entry): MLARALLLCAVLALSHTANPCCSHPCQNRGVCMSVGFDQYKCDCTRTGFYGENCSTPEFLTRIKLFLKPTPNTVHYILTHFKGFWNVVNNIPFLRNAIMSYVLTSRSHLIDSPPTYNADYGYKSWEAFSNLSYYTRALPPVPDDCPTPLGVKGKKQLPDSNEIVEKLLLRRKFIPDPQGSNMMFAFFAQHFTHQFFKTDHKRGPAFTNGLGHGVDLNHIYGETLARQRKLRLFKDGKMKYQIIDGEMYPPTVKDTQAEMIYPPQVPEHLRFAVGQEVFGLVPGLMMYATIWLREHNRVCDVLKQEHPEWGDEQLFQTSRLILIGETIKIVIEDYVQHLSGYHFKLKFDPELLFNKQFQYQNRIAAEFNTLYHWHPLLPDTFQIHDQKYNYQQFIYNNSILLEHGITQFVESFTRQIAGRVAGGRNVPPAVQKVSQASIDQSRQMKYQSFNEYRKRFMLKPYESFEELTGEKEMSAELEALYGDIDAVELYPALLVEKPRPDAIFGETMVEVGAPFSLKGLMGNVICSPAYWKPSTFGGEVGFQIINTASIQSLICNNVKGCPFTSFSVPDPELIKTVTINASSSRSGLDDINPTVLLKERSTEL

Rattus norvegicus [17] = test: Anti-inflammatory activity against carrageenan-induced Albino Wistar rat paw edema model assessed as inhibition of rat paw edema at 50 mg/kg, po after 5 hrs relative to control; format: functional
RAW264.7 = test: Anti-inflammatory activity against mouse RAW264.7 cells assessed as inhibition of LPS-induced NO production at 50 ug/ml relative to control; format: functional; parameters: scale not given: the % may be the effect or the level left
Human gammaherpesvirus 4 = test: Antiviral activity against Epstein-Barr virus; format: functional, organism-based
Rattus norvegicus [18] = test: Anti-inflammatory activity against carrageenan-induced Albino Wistar rat paw edema model assessed as inhibition of rat paw edema at 10 mg/kg, po pretreated for 1 hr followed by carrageenan addition measured after 1 to 4 hrs relative to control; format: functional

Fc1ccc(-c2cn(Cc3csc(-c4ccccc4)n3)nn2)cc1
MIC [1]: 8.99 µg/mL (≈ 26.7 µM)

O=C(CC1SC(=O)NC1=O)Oc1ccc(/C=C2/SC(=O)NC2=O)cc1Br (configuration not stated)
MIC (Staphylococcus aureus [2]): 3.91 µg/mL (≈ 8.55 µM) | MIC [3]: 7.81 µg/mL (≈ 17.1 µM) | MIC (Staphylococcus aureus [4]): 3.91 µg/mL (≈ 8.55 µM)

GENTAMICIN
MIC (Klebsiella pneumoniae): 0.03 µg/mL

COc1cccc2c1C(=O)c1c(O)c3c(c(O)c1C2=O)C[C@@](O)(C(=O)CO)C[C@@H]3O[C@H]1C[C@H](N)[C@H](O)[C@H](C)O1 [DOXORUBICIN]
GI50 (HepG2): 0.04 µM | pIC50 (A-431): 4.37 | GI50 (NCI-H460): 0.09 µM | pIC50 (Jurkat): 4.34 | GI50 (HT-29): 0.05 µM

O=C(O)c1sc(-c2ccc(Cl)cc2)cc1C1C=C(c2ccccc2)c2c1ncn1c(-c3ccc(Cl)cc3)nnc21 (configuration not stated)
GI50 (HepG2): 0.02 µM | GI50 (NCI-H460): 0.05 µM | GI50 (HT-29): 0.03 µM

NYSTATIN
pIC50 (Pseudomonas aeruginosa): 5.14 | pIC50 (Bacillus subtilis): 5.14 | pIC50 (Candida albicans): 5.14 | pIC50 (Escherichia coli): 5.14 | pIC50 (Staphylococcus aureus [5]): 5.14

N#Cc1c(/N=C/c2cc3cc(Br)ccc3[nH]2)sc2c1CCCCC2
pIC50 (MCF7 [6]): 4.83 | Ratio IC50 (MCF7 [7]): 3.51

N#Cc1ccccc1-c1nnc(-c2ccc(/C=C3\SC(=O)NC3=O)cc2)o1
GI50 (MCF7 [8]): 0.004 µM

O=C(N[C@H](CO)[C@H](O)c1ccc([N+](=O)[O-])cc1)C(Cl)Cl [CHLORAMPHENICOL]
pIC50 (Pseudomonas aeruginosa; Pseudomonas aeruginosa): 4.65 | pIC50 (Bacillus subtilis; Bacillus subtilis): 4.65 | pIC50 (Candida albicans; Candida albicans): 4.65 | pIC50 (Escherichia coli; Escherichia coli): 4.65 | pIC50 (Staphylococcus aureus [5]; Staphylococcus aureus): 4.65

COc1ccc(-c2csc(NC(=O)CSc3nnc(-c4ccc(Br)cc4)c(-c4ccc(Br)cc4)n3)n2)cc1
IC50 (Alpha glucosidase): 2.85 µM

S=c1ssnc1-c1ccccc1
pEC50 [9]: 7.64

COc1ccc2nc3cc(Cl)ccc3c(Nc3sc4c(c3C#N)CCC4)c2c1
pIC50 (Leishmania amazonensis): 5.02

N#Cc1c(-c2ccc(N3CCOCC3)cc2)csc1NC(=O)CN1CCOCC1
inhibition in vivo at 50 mg/kg (Rattus norvegicus [10]): 58.5%

FC(F)(F)Oc1ccc(/N=c2\ssnc2Cl)nc1
pIC50 [11]: 6.01

O=C1O[C@H]([C@@H](O)CO)C(O)=C1O [ASCORBIC ACID]
pIC50 [12]: 4.77

Cc1ccc(Nc2nc(N(C)C)c(C#N)s2)cc1C
pIC50 (A-431): 4.46 | pIC50 (Jurkat): 4.46

C=CCNc1nc(C)c(C2=NN(C(N)=S)[C@H](c3ccc(Cl)cc3)C2)s1
MIC (Streptococcus pneumoniae): 0.12 µg/mL (≈ 0.306 µM)

COc1ccc(C2SCC(=O)N2c2ccc3nc(Cc4ccc(O)cc4)c(=O)[nH]c3c2)cc1 (configuration not stated)
pIC50 [12]: 4.71

CC1(C)S[C@@H]2[C@H](NC(=O)[C@H](N)c3ccccc3)C(=O)N2[C@H]1C(=O)O [AMPICILLIN]
MIC (Streptococcus pneumoniae): 0.03 µg/mL (≈ 0.0859 µM)

CCCCNC(=O)CN1C(=O)S/C(=C/c2ccc(Cl)cc2)C1=O
pEC50 [13]: 5.23

O=C(c1cccc(Br)c1)N1CCC(c2cc(-c3snc(Cl)c3Cl)ns2)CC1
EC50 (Psilocybe cubensis): 0.046 µg/mL (≈ 0.0914 µM) | EC50 (Phytophthora infestans): 0.27 µg/mL (≈ 0.536 µM)

O=C(Nc1nc(=S)ss1)c1ccc(Cl)cc1
MIC [14]: 0.5 µg/mL (≈ 1.73 µM)

O=S(=O)(CC1CS1)c1ccc(-n2cc(-c3ccc(-c4ccncc4)cc3)nn2)cc1 (configuration not stated)
pIC50 [15]: 6.21

COc1ccc(-c2nn(-c3ccc(S(C)(=O)=O)cc3)cc2/C=C2\SC(=O)NC2=O)cc1
pIC50 [16]: 6.06 | inhibition in vivo at 50 mg/kg (Rattus norvegicus [17]): 80.2%

N#Cc1ccc(/N=N/c2ccc(/C=C3\SC(=O)NC3=O)c(/N=N/c3ccc(C#N)cc3)c2O)cc1
Activity (RAW264.7): 60%

COc1ccc([C@H]2c3sc(=O)[nH]c3SC[C@H]2C=O)cc1
pEC50 (Human gammaherpesvirus 4): 7.15

COc1ccc2c(c1)c(CC(=O)O)c(C)n2C(=O)c1ccc(Cl)cc1 [INDOMETHACIN]
inhibition in vivo at 10 mg/kg (Rattus norvegicus [18]): 47.7%
